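In this assay, cells in 96-well plates receive the compound at five concentrations for 48 hours. Endpoints are linearly interpolated between the surrounding concentrations. TGI: concentration producing complete growth inhibition.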
How the values were obtained:
Assay in all cases: growth of human tumour cells (NCI), 48 h
A498 renal = system: A498 renal
CCRF-CEM leukemia = system: CCRF-CEM leukemia
COLO 205 colon = system: COLO 205 colon
HOP-62 NSCLC = system: HOP-62 NSCLC
K-562 leukemia = system: K-562 leukemia
M14 melanoma = system: M14 melanoma
MALME-3M melanoma = system: MALME-3M melanoma
MDA-MB-435 = system: MDA-MB-435
MOLT-4 leukemia = system: MOLT-4 leukemia
NCI-H460 lung = system: NCI-H460 lung
OVCAR-8 ovarian = system: OVCAR-8 ovarian
PC-3 prostate = system: PC-3 prostate
SF-539 CNS = system: SF-539 CNS
SK-MEL-2 melanoma = system: SK-MEL-2 melanoma
SK-MEL-5 melanoma = system: SK-MEL-5 melanoma
SN12C renal = system: SN12C renal
SNB-75 CNS = system: SNB-75 CNS
SW-620 colon = system: SW-620 colon
UACC-257 melanoma = system: UACC-257 melanoma
UO-31 renal = system: UO-31 renal

SMILES | TGI (A498 renal) [µM] | TGI (CCRF-CEM leukemia) [µM] | TGI (COLO 205 colon) [µM] | TGI (HOP-62 NSCLC) [µM] | TGI (K-562 leukemia) [µM] | TGI (M14 melanoma) [µM] | TGI (MALME-3M melanoma) [µM] | TGI (MDA-MB-435) [µM] | TGI (MOLT-4 leukemia) [µM] | TGI (NCI-H460 lung) [µM] | TGI (OVCAR-8 ovarian) [µM] | TGI (PC-3 prostate) [µM] | TGI (SF-539 CNS) [µM] | TGI (SK-MEL-2 melanoma) [µM] | TGI (SK-MEL-5 melanoma) [µM] | TGI (SN12C renal) [µM] | TGI (SNB-75 CNS) [µM] | TGI (SW-620 colon) [µM] | TGI (UACC-257 melanoma) [µM] | TGI (UO-31 renal) [µM]
Ic1cccc(/C=C/CN2CCN(CCOC(c3ccccc3)c3ccccc3)CC2)c1 | 31.7 | 32.4 | 65.1 | 32.6 | 23.9 | 38.8 | 39.3 | 30.4 | 35.9 | 32.4 | 30 | 66.3 | 39.8 | 38.3 | 32.2 | 29.6 | 37.6 | > 100 | 31.4 | 29
O=C(Nc1nncs1)NS(=O)(=O)n1c(=S)sc2ccccc21 | > 100 | 75.7 | > 100 | > 100 | > 100 | > 100 | > 100 | > 100 | > 100 | > 100 | > 100 | > 100 | > 100 | > 100 | > 100 | > 100 | > 100 | > 100 | > 100 | > 100
COC(=O)[C@H](Cc1c[nH]c2ccccc12)NC(=O)c1ccc(CNC(=O)/C(C)=C/c2ccccc2)cc1 | 64.2 | > 100 | 50.5 | > 100 | > 100 | 30.1 | 25.6 | > 100 | > 100 | > 100 | > 100 | > 100 | > 100 | 27.2 | 33.2 | > 100 | 32.2 | > 100 | 33.5 | > 100
Cc1c(C)n(-c2ccccc2)c2nc(S(C)(=O)=O)nc(S(C)(=O)=O)c12 | 28.9 | 2.29 | 3.29 | 33.2 | 2.95 | 3.1 | 2.92 | 3.56 | 2.49 | 37.1 | 4.94 | 10.2 | 27 | 4.21 | 27.1 | 33.8 | 34.5 | 2.9 | 3.16 | 3.23
CCN1CCC(O)(/C=C/c2ccc(C)cc2)C(C(=O)/C=C/c2ccc(C)cc2)C1 (stereo not given) | 24.6 | 5.62 | 4.45 | 25.9 | 6.07 | 9.52 | 14.8 | 8.75 | 4.59 | 16.7 | 7.54 | 18.1 | 10.3 | 15.9 | 9.85 | 20.6 | 22 | 3.36 | 25.5 | 12.4
C/C(=N/NC(=S)Nc1ccc(Cl)cc1)c1cccc(/C(C)=N\NC(=S)Nc2ccc(Cl)cc2)n1 | 79.5 | > 100 | 30.7 | 45 | 45 | 8.53 | 36 | 55.8 | 16.7 | 56.4 | 8.69 | > 100 | 10.6 | 49.2 | 18.6 | > 100 | > 100 | > 100 | 46.8 | 53.2
Cc1ccc(-c2n[nH]c(=O)n2/N=C\c2ccc([N+](=O)[O-])cc2)cc1 | > 100 | > 100 | > 100 | > 100 | > 94.2 | > 100 | > 100 | > 94.2 | > 100 | > 100 | > 100 | > 100 | > 100 | > 100 | > 100 | > 100 | > 100 | > 100 | > 100 | > 100
CC1C[C@]2(C)C(=NCCN)Nc3ccccc3[C@@H]2N(C)c2ccccc21 (stereo not given in full) | 30.5 | 35 | 5.14 | 30.6 | 40.2 | 3.56 | 9.64 | 22.7 | > 100 | 24 | 27.9 | 26.6 | 25.9 | 34.3 | 26.8 | 28.4 | 13.2 | 35.9 | 14.8 | 23.2
CC(C)(C)OC(=O)NC(Cc1ccc(OC(C)(C)C)cc1)C(=O)N[C@H]1CCC[C@H]1C(=O)NC(Cc1ccccc1)C(=O)N1CCCC1C(N)=O (stereo not given in full) | > 100 | > 100 | > 100 | > 100 | > 100 | > 100 | > 100 | > 100 | > 100 | > 100 | > 100 | > 100 | > 100 | > 100 | > 100 | > 100 | > 100 | > 100 | > 100 | > 100
